The values below come from PubChem BioAssay (NCI).

Each structure is given as a SMILES string.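 Test compounds were applied to cells in 96-well plates for 48 hours at 5 doses. TGI is the concentration that stops growth completely.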 A value given as a limit tells only on which side of the number the result lay.

Some test systems named below: KM12 colon; PC-3 prostate; MALME-3M melanoma; SNB-19 CNS; SK-MEL-2 melanoma; SK-OV-3 ovarian; K-562 leukemia; HOP-62 NSCLC; RPMI-8226 leukemia; U251 CNS; DU-145 prostate; SNB-75 CNS; UACC-257 melanoma; ACHN renal; SN12C renal; HT29 colon; HOP-92 NSCLC; RXF 393 renal.
Common to all, as to experiment: NCI anticancer screen, dose series, 48 h

Take `Nc1nc2c(c(=O)[nH]1)C(c1ccccc1)CC(=O)N2` (centres undefined): the TGI in the assay with KM12 colon, with PC-3 prostate, in the assay with MALME-3M melanoma, with SNB-19 CNS, in the assay on SK-MEL-2 melanoma and with SK-OV-3 ovarian was above 100 µM throughout. The TGI in the assay with K-562 leukemia, in the assay with HOP-62 NSCLC, with RPMI-8226 leukemia, in the assay with U251 CNS, with DU-145 prostate and with SNB-75 CNS was above 100 µM throughout. Moreover, the TGI in the assay on UACC-257 melanoma, in the assay with ACHN renal, in the assay with SN12C renal and in the assay with HT29 colon was above 100 µM each time.

With `C=CC1CCC[N+]1(CC(=O)OCC)Cc1ccccc1` (centres undefined), the TGI in the assay on PC-3 prostate, in the assay with MALME-3M melanoma, with SNB-19 CNS, with SK-OV-3 ovarian, in the assay with K-562 leukemia and in the assay with HOP-62 NSCLC was above 100 µM in each case. In addition, the TGI in the assay on RPMI-8226 leukemia, in the assay on U251 CNS, in the assay on DU-145 prostate, with HOP-92 NSCLC, with SNB-75 CNS and with UACC-257 melanoma was above 100 µM throughout. In addition, the TGI with ACHN renal, with SN12C renal and in the assay on HT29 colon was above 100 µM each time.

With `CCCCCCc1ccc(C(=O)NO)cc1`, the TGI in the assay on KM12 colon, with PC-3 prostate, in the assay with SNB-19 CNS, with SK-MEL-2 melanoma, with SK-OV-3 ovarian and in the assay with K-562 leukemia was above 100 µM throughout. In addition, the TGI with HOP-62 NSCLC was above 100 µM; in the assay with RPMI-8226 leukemia, 56.8 µM; in the assay with U251 CNS it was above 100 µM; in the assay with DU-145 prostate it was 68.4 µM; in the assay on RXF 393 renal it was above 100 µM; with HOP-92 NSCLC it was above 100 µM. Also, the TGI is above 100 µM in the assay with SNB-75 CNS; above 100 µM in the assay with UACC-257 melanoma; 88.5 µM with ACHN renal; 64.5 µM in the assay on SN12C renal; above 100 µM with HT29 colon.

For the compound `C=CCN1C(=O)/C(=C\c2cc(C(C)(C)C)c(O)c(C(C)(C)C)c2)NC1=S`, the TGI in the assay with KM12 colon was 72.6 µM; in the assay on PC-3 prostate, 42 µM; in the assay on MALME-3M melanoma, above 100 µM; with SNB-19 CNS it was above 100 µM; in the assay on SK-MEL-2 melanoma, 31.8 µM; in the assay on SK-OV-3 ovarian, above 100 µM. In addition, the TGI with K-562 leukemia is above 100 µM; with HOP-62 NSCLC, 51.5 µM; in the assay on RPMI-8226 leukemia it was above 100 µM; with U251 CNS it was 32.7 µM; in the assay with DU-145 prostate it was 90.3 µM; in the assay on HOP-92 NSCLC, above 100 µM. Besides, the TGI in the assay on UACC-257 melanoma was 43.4 µM; with ACHN renal, 90.2 µM; with SN12C renal it was above 100 µM; in the assay with HT29 colon, 80.7 µM.

Turning to `N#CC1C(=O)SC2c3ccccc3C(=O)c3ccccc3C12` (centres undefined), the TGI with KM12 colon, in the assay with PC-3 prostate, in the assay on MALME-3M melanoma, with SNB-19 CNS, in the assay with SK-MEL-2 melanoma and in the assay on SK-OV-3 ovarian was above 10 µM in each case. In addition, the TGI in the assay with K-562 leukemia, with HOP-62 NSCLC, in the assay on RPMI-8226 leukemia, in the assay with U251 CNS, in the assay on DU-145 prostate and in the assay on RXF 393 renal was above 10 µM in each case. Besides, the TGI in the assay with SNB-75 CNS, with UACC-257 melanoma, in the assay on ACHN renal, in the assay on SN12C renal and in the assay on HT29 colon was above 10 µM in each case.

On to `O=C(O)C1CCCCC1C(=O)Nn1cnnc1` (centres undefined), for which the TGI in the assay on KM12 colon, in the assay on PC-3 prostate, with SNB-19 CNS, in the assay with SK-MEL-2 melanoma, in the assay with SK-OV-3 ovarian and in the assay with K-562 leukemia was above 100 µM throughout. The TGI in the assay with HOP-62 NSCLC, in the assay with RPMI-8226 leukemia, with U251 CNS, in the assay on DU-145 prostate, with RXF 393 renal and with HOP-92 NSCLC was above 100 µM in each case. Also, the TGI in the assay on SNB-75 CNS, with UACC-257 melanoma, in the assay on ACHN renal, in the assay on SN12C renal and with HT29 colon was above 100 µM each time.

In the case of `COc1cc(C2SCC(=O)N2c2ccc(-n3c(-c4ccccc4)nc4ccccc4c3=O)cc2)cc(OC)c1OC` (centres undefined), the TGI with KM12 colon, with PC-3 prostate, with SNB-19 CNS, in the assay on SK-MEL-2 melanoma, in the assay with SK-OV-3 ovarian and in the assay on K-562 leukemia was above 100 µM throughout. Moreover, the TGI with HOP-62 NSCLC was above 100 µM; in the assay with RPMI-8226 leukemia it was above 100 µM; in the assay with U251 CNS, above 100 µM; with DU-145 prostate, above 100 µM; in the assay with HOP-92 NSCLC, 84.2 µM; with UACC-257 melanoma, above 100 µM. The TGI with ACHN renal, in the assay on SN12C renal and with HT29 colon was above 100 µM in each case.

Turning to `CC1(C)CC2=C(Sc3ccccc3N2)C(=O)C1C(=O)C(=O)Nc1cccc([N+](=O)[O-])c1` (centres undefined), the TGI in the assay with KM12 colon, in the assay with PC-3 prostate, in the assay on MALME-3M melanoma, with SNB-19 CNS, in the assay with SK-MEL-2 melanoma and with SK-OV-3 ovarian was above 100 µM throughout. The TGI in the assay on K-562 leukemia, in the assay with RPMI-8226 leukemia, in the assay with U251 CNS, with DU-145 prostate, with HOP-92 NSCLC and with SNB-75 CNS was above 100 µM throughout. In addition, the TGI in the assay with UACC-257 melanoma, in the assay with ACHN renal, in the assay on SN12C renal and in the assay with HT29 colon was above 100 µM each time.
